According to the CheMixHub viscosity set:

Assay: xn = mol fraction of the nth substance listed

COc1ccc(C=O)cc1 + Cc1ccccc1O
308.15 K, 101 kPa
Conditions	viscosity [mPa·s]
x1 = 0.7753	3.815
x1 = 0.8859	3.475

CCOC(C)=O + C1CCCCC1
viscosity [mPa·s], 101 kPa
Conditions	298.15 K	308.15 K
x1 = 0.0548	0.841	0.706
x1 = 0.1549	0.765	0.63
x1 = 0.2552	0.7	0.569
x1 = 0.3558	0.643	0.52
x1 = 0.4539	0.595	0.481
x1 = 0.4998	0.575	0.466
x1 = 0.5513	0.554	0.451
x1 = 0.6549	0.516	0.426
x1 = 0.7515	0.486	0.408
x1 = 0.8531	0.458	0.395
x1 = 0.9536	0.435	0.387

[O-][Cl+3]([O-])([O-])O[Cl+3]([O-])([O-])[O-] + O
293.15 K, 101.33 kPa
Conditions	viscosity [mPa·s]
x1 = 0.428	1.179
x1 = 0.46	0.949
x1 = 0.474	0.893
x1 = 0.491	0.821
x1 = 0.499	0.796
x1 = 0.51	0.762
x1 = 0.519	0.754
x1 = 0.602	0.726
x1 = 0.711	0.714
x1 = 0.787	0.713
x1 = 0.818	0.709
x1 = 0.906	0.708

COc1ccc(C=O)cc1 + Cc1cc(C)cc(C)c1
viscosity [mPa·s], 101 kPa
Conditions	x1 = 0.1142	x1 = 0.2248	x1 = 0.3321	x1 = 0.4361	x1 = 0.537	x1 = 0.635	x1 = 0.7302	x1 = 0.8227	x1 = 0.9126
303.15 K	0.686	0.766	0.825	1.044	1.283	1.581	1.77	2.826	2.963
308.15 K	0.645	0.713	0.7707	0.96	1.148	1.395	1.582	2.452	2.665
313.15 K	0.438	0.487	0.547	0.676	0.825	1	1.094	1.859	1.969
318.15 K	0.392	0.435	0.5	0.614	0.733	0.9	1	1.517	1.713

CCCCCCC(=O)O + ClC(Cl)(Cl)Cl
298.15 K, 101 kPa
Conditions	viscosity [mPa·s]
x1 = 0.06	0.99
x1 = 0.12	1.08
x1 = 0.17	1.175
x1 = 0.23	1.271
x1 = 0.44	1.767
x1 = 0.54	2.046
x1 = 0.64	2.362
x1 = 0.83	3.015

CCCCCCCCn1cc[n+](C)c1.[Cl-] + CN1CCCC1=O
100 kPa
Conditions	viscosity [mPa·s]
293.15 K, x1 = 0.2805	26.15
308.15 K, x1 = 0.3657	33.55
308.15 K, x1 = 0.4679	67.15
318.15 K, x1 = 0.4679	43.25

COC(=O)CC(C)=O + COC(=O)c1ccccc1
viscosity [mPa·s], 101.33 kPa
Conditions	x1 = 0.0981	x1 = 0.1935	x1 = 0.2966	x1 = 0.4001	x1 = 0.4987	x1 = 0.5986	x1 = 0.6984	x1 = 0.798	x1 = 0.8977
298.15 K	1.775	1.732	1.703	1.667	1.639	1.615	1.598	1.583	1.569
303.15 K	1.609	1.573	1.548	1.515	1.49	1.469	1.453	1.44	1.429
308.15 K	1.467	1.435	1.413	1.382	1.362	1.343	1.329	1.316	1.306

Clc1cccc(Cl)c1 + CCNc1ccccc1
viscosity [mPa·s], 101 kPa
Conditions	303.15 K	308.15 K
x2 = 0.0725	1.021	0.954
x2 = 0.1256	1.069	0.996
x2 = 0.1956	1.134	1.051
x2 = 0.2687	1.2	1.108
x2 = 0.3369	1.258	1.157
x2 = 0.4056	1.315	1.205
x2 = 0.4856	1.38	1.259
x2 = 0.5598	1.437	1.308
x2 = 0.6235	1.485	1.347
x2 = 0.6925	1.536	1.389
x2 = 0.7759	1.594	1.436
x2 = 0.8596	1.651	1.482
x2 = 0.9125	1.687	1.511

CCOC(C)=O + CCCO
viscosity [mPa·s], 101 kPa
Conditions	298.15 K	313.15 K
x1 = 0.046	1.597	1.158
x1 = 0.0998	1.337	0.987
x1 = 0.1992	1.007	–
x1 = 0.2966	0.802	–
x1 = 0.4052	0.694	–
x1 = 0.5009	0.601	–
x1 = 0.5421	0.576	0.482
x1 = 0.5948	0.558	0.466
x1 = 0.7034	0.509	–
x1 = 0.7964	0.475	–
x1 = 0.9033	0.448	–
x1 = 0.9542	0.45	–

COC(=O)CC(C)=O + CCCCCCO
viscosity [mPa·s], 101.33 kPa
Conditions	x1 = 0.1036	x1 = 0.204	x1 = 0.3064	x1 = 0.4075	x1 = 0.5096	x1 = 0.6081	x1 = 0.7063	x1 = 0.806	x1 = 0.9023
298.15 K	3.185	2.588	2.204	1.947	1.749	1.609	1.521	1.473	1.478
303.15 K	2.76	2.257	1.932	1.72	1.547	1.442	1.364	1.33	1.34
308.15 K	2.409	1.989	1.711	1.527	1.387	1.302	1.238	1.211	1.222

CCOc1ccccc1 + CCCCCCCCCCO
viscosity [mPa·s], 101.3 kPa
Conditions	x1 = 0.0999	x1 = 0.2011	x1 = 0.2996	x1 = 0.4003	x1 = 0.5011	x1 = 0.6025	x1 = 0.6998	x1 = 0.8007	x1 = 0.9012
293.15 K	11.33	8.76	6.789	5.22	4.017	3.116	2.486	2.001	1.637
298.15 K	9.33	7.335	5.786	4.5	3.502	2.729	2.188	1.79	1.501
308.15 K	6.907	5.541	4.402	3.45	2.705	2.149	1.724	1.397	1.144
318.15 K	4.863	3.962	3.226	2.613	2.125	1.726	1.414	1.147	0.9405

COc1ccc(C=O)cc1 + COCCO
viscosity [mPa·s], 101 kPa
Conditions	x1 = 0.0753	x1 = 0.1549	x1 = 0.2391	x1 = 0.3283	x1 = 0.4231	x1 = 0.5238	x1 = 0.6311	x1 = 0.7457	x1 = 0.8684
303.15 K	1.502	1.518	1.567	1.656	1.793	1.984	2.242	2.577	3.006
308.15 K	1.463	1.488	1.537	1.614	1.723	1.87	2.062	2.308	2.617
313.15 K	1.214	1.258	1.32	1.404	1.513	1.651	1.824	2.037	2.298
318.15 K	1.129	1.175	1.236	1.312	1.408	1.525	1.669	1.843	2.054

CCOC(C)=O + CO
viscosity [mPa·s]
Conditions	293.15 K	298.15 K	303.15 K	308.15 K	313.15 K	318.15 K	323.15 K
100 kPa, x2 = 0.4071	0.4216	0.4015	0.384	0.365	0.3527	0.3431	0.3216
100 kPa, x2 = 0.6468	0.4612	0.4319	0.4112	0.3868	0.3681	0.3501	0.3336
100 kPa, x2 = 0.8048	0.499	0.4697	0.4463	0.4182	0.3988	0.3758	0.3564
100 kPa, x2 = 0.9168	0.5454	0.5164	0.4893	0.4559	0.4327	0.4083	0.3858
101 kPa, x1 = 0.065	0.549	–	0.477	–	0.424	–	0.378
101 kPa, x1 = 0.115	0.528	–	0.462	–	0.413	–	0.368
101 kPa, x1 = 0.306	0.475	–	0.422	–	0.377	–	0.342
101 kPa, x1 = 0.321	0.471	–	0.418	–	0.376	–	0.341
101 kPa, x1 = 0.445	–	–	–	–	0.364	–	0.333
101 kPa, x1 = 0.598	0.444	–	0.397	–	0.36	–	0.328
101 kPa, x1 = 0.797	–	–	–	–	0.362	–	0.332

Clc1cccc(Cl)c1 + CCCCCC
viscosity [mPa·s], 100 kPa
Conditions	298.15 K	308.15 K	318.15 K
x1 = 0.0593	0.327	0.301	0.282
x1 = 0.1575	0.36	0.331	0.309
x1 = 0.255	0.4	0.368	0.338
x1 = 0.3473	0.446	0.407	0.37
x1 = 0.4204	0.487	0.442	0.4
x1 = 0.48	0.524	0.473	0.427
x1 = 0.5322	0.56	0.504	0.454
x1 = 0.5704	0.588	0.528	0.475
x1 = 0.6295	0.634	0.568	0.51
x1 = 0.6705	0.669	0.598	0.537
x1 = 0.7263	0.719	0.642	0.577
x1 = 0.8186	0.81	0.724	0.649
x1 = 0.9465	0.952	0.851	0.76

COc1ccc(C=O)cc1 + CCOCCO
viscosity [mPa·s], 101 kPa
Conditions	x1 = 0.0825	x1 = 0.1683	x1 = 0.2576	x1 = 0.3506	x1 = 0.4474	x1 = 0.5484	x1 = 0.6539	x1 = 0.7641	x1 = 0.8793
303.15 K	1.521	1.534	1.586	1.682	1.828	2.03	2.294	2.629	3.044
308.15 K	1.459	1.483	1.535	1.618	1.735	1.891	2.09	2.338	2.641
313.15 K	1.33	1.371	1.431	1.512	1.617	1.749	1.912	2.108	2.342
318.15 K	1.251	1.294	1.351	1.423	1.513	1.623	1.755	1.911	2.096

CCOc1ccccc1 + CCOCC
298.15 K, 101 kPa
Conditions	viscosity [mPa·s]
x2 = 0.0745	1.027
x2 = 0.0975	0.9993
x2 = 0.1855	0.8671
x2 = 0.2523	0.7856
x2 = 0.3026	0.7152
x2 = 0.3516	0.6667
x2 = 0.4501	0.5713
x2 = 0.5106	0.5154
x2 = 0.5579	0.4809
x2 = 0.6048	0.4406
x2 = 0.6882	0.3866
x2 = 0.7485	0.3494
x2 = 0.8303	0.3057
x2 = 0.9004	0.2674

COC(=O)CC(C)=O + CCCCO
viscosity [mPa·s], 101.33 kPa
Conditions	x1 = 0.1022	x1 = 0.2039	x1 = 0.306	x1 = 0.4081	x1 = 0.511	x1 = 0.6074	x1 = 0.7044	x1 = 0.8051	x1 = 0.9038
298.15 K	1.886	1.628	1.465	1.378	1.328	1.311	1.321	1.368	1.436
303.15 K	1.669	1.447	1.308	1.235	1.197	1.183	1.197	1.211	1.302
308.15 K	1.487	1.301	1.195	1.118	1.09	1.08	1.093	1.131	1.19

Nc1cc[nH]c(=O)n1 + O
viscosity [mPa·s], 101.3 kPa
Conditions	x1 = 0.000131	x1 = 0.0001895	x1 = 0.0002822	x1 = 0.000457	x1 = 0.0004889	x1 = 0.0005591
298.15 K	0.892	0.893	0.894	0.895	0.896	0.897
308.15 K	0.721	0.722	0.722	0.724	0.724	0.725
318.15 K	0.598	0.598	0.599	0.601	0.601	0.602
